tested on: T47D human breast cancer cells; experiment: Actin cytoskeleton modification in T47D cells (rhodamine-phalloidin staining); format: cell-based; settings: T47D cells incubated 24 hours, FIG. 3

Q: How did the “modifications of the actin cytoskeleton” value turn out when `Oc1cc(O)c2c(c1)O[C@H](c1ccc(O)c(O)c1)[C@H](O)[C@H]2c1c(O)cc(O)c2c1O[C@H](c1ccc(O)c(O)c1)[C@H](O)C2` [B2] was run?
A: polymerization and sub-membrane redistribution

Q: For `Oc1cc(O)c2c(c1)O[C@H](c1ccc(O)c(O)c1)[C@H](O)[C@H]2c1c(O)cc2c(c1O)C[C@@H](O)[C@@H](c1ccc(O)c(O)c1)O2` [B5], which “modifications of the actin cytoskeleton” value is on record?
A: polymerization and sub-membrane redistribution

Q: For catechin, which “modifications of the actin cytoskeleton” value is on record?
A: polymerization and sub-membrane redistribution
